Here are results for two molecules from patent publication US12427140B2, “4-[5-[(rac)-1-[5-(3-chlorophenyl)-3-isoxazolyl]ethoxy]-4-methyl-4H-1,2,4-triazol-3-yl]pyridine for use in prevention and/or treatment of pain in an animal” (priority 2019, dated 2025).

For series [1] the following is noted: cited from earlier work.
The nature of series [2]: Adverse effect on kidneys. Particulars: in vivo.
A short description of series [3]: Dissolution of TT001 in I.V. formulation vehicle. Format: physicochemical. Particulars: 0.1 to 10 mg/ml in 40% w/v HPβCD solution in water for injection; a couple of hours for complete dissolution. The protocol: Formulation Method for the Preparation of TT001 for I.V. Dosing, 0.1 to 10 mg/ml
The formulation method is applicable at concentrations in formulation between 0.1 and 10 mg/mL corresponding to 0.262 and 26.2 μmol/mL
Preparation of 40% w/v HPβCD solution in water for injection
Excipients Hydroxypropyl-β-cyclodextrin, Kleptose, Roquette (HPβCD) 400 mg (40% w/v)
Water for injection to 1 ml (1.13 g)
Preparation of TT001 I.V. formulations between 0.1 and 10 mg/ml
Vehicle (40% w/v HPβCD solution in water for injection) to 1 ml (1.13 g)

The subject of series [4] is pain in dogs with chronic osteoarthritis. Particulars: cited from earlier work.

In the case of `C[C@@H](Oc1nnc(-c2ccncc2)n1C)c1cc(-c2cccc(Cl)c2)on1` [TT001, 4-[5-[(1R)-1-[5-(3-Chlorophenyl)-3-isoxazolyl]ethoxy]-4-methyl-4H-1,2,4-triazol-3-yl]pyridine], in series [1] (high dose of 13 mg (about 0.19 mg/kg), 2 to 3 hours after food-intake), the “effect on TLESR/reflux” value is “some effect”. In addition, the side effects entry in series [1] (high doses of 13 mg) is recorded as “Some serious side effects”. The effect on reflux entry in series [1] (prior to food intake and at 1-2 hours after food intake) is “no significant effect”. Also, in series [2], the “adverse effect on kidneys” value is reported as “not shown any adverse effect on kidneys”. Further, in series [3], the dissolution result was “moderate”.
Take `COc1cccc(C2(O)CCCCC2CN(C)C)c1` (stereo not drawn) [Tramadol]: the “pain killer effect in dogs” value in series [4] is “do not occur”.
